# Key:
# [1] = organism: Mus musculus; assay: Anticonvulsant activity was determined in mouse maximal electroshock seizure threshold (MEST) model at 1 hour post dose.; format: functional
# [2] = organism: Rattus norvegicus; assay: Anticonvulsant activity was determined in rat maximal electroshock seizure threshold (MEST) model at 4 hour post dose.; format: functional
# [3] = target: SB-204269 binding site; assay: Inhibition of [3H]SB-204269 binding in rat forebrain; format: tissue-based
# [4] = organism: Mus musculus; assay: Anticonvulsant activity was determined in mouse maximal electroshock seizure threshold (MEST) model at 1 hour post dose; format: functional
# [5] = organism: Rattus norvegicus; assay: Anticonvulsant activity was determined in rat maximal electroshock seizure threshold (MEST) model at 4 hour post dose; format: functional
# [6] = target: SB-204269 binding site; assay: Binding affinity for [3H]SB-204269 in rat forebrain; format: tissue-based
Log Ki [3],Structure (SMILES),Increase [1] [%],also measured
-7.7,COc1cc(C(C)(C)C)ccc1C(=O)Nc1cccc2c1CCN(C)C2,140,Increase [2]: 330%
-7.9,CCc1cc(OC)c(C(=O)Nc2cccc3c2CCN(C)C3)cc1Cl,100,
-7.6,COc1cc(C)c(Cl)cc1C(=O)Nc1cccc2c1CCN(C)C2,50,
-6.4,COc1cc(C(C)(C)C)ccc1C(=O)Nc1ccc2c(c1)CCN(C)C2,4,
-6.1,COc1cc(N)c(Cl)cc1C(=O)Nc1cccc2c1CN(C)CC2,,
-6.1,COc1cc(Cl)ccc1C(=O)Nc1cccc2c1CCN(C)C2,,
-5.4,COc1c(Cl)cc(Cl)cc1C(=O)Nc1cccc2c1CCN(C)C2,,
-6,CN1CCc2c(cccc2NC(=O)c2ccc(C(C)(C)C)cc2)C1,,
-7.3,CCc1ccc(C(=O)Nc2cccc3c2CCN(C)C3)c(OC)c1,60,
-6.9,COc1cc(C(C)(C)C)c(Cl)cc1C(=O)Nc1cccc2c1CCN(C)C2,,
-7,COc1ccc(Cl)cc1C(=O)Nc1cccc2c1CCN(C)C2,20,
-6.8,COc1cc([N+](=O)[O-])c(Cl)cc1C(=O)Nc1cccc2c1CCN(C)C2,,
-7.2,COc1ccc(Cl)cc1C(=O)Nc1ccc2c(c1)CN(C)CC2,4,
-7.8,COc1cc(N)c(Cl)cc1C(=O)Nc1cccc2c1CCN(C)C2,25,
-7.6,COc1cc(C(C)(C)C)ccc1C(=O)Nc1ccc2c(c1)CN(C)CC2,130,Increase [2]: 110%
,CC(=O)c1ccc2c(c1)[C@H](NC(=O)c1ccc(F)cc1)[C@@H](O)C(C)(C)O2 [CARABERSAT],,Increase [4]: 100%; Increase [5]: 570%; Log Ki [6]: -7.3

Structure (SMILES),Log Ki [3],Increase [1] [%],also measured
COc1ccccc1C(=O)Nc1cccc2c1CCN(C)C2,-5.8,,
CN1CCc2c(cccc2NC(=O)c2cccc(Cl)c2)C1,< -5,,

# Reference: ChEMBL document CHEMBL1131352, “Identification of a series of 1,2,3,4-tetrahydroisoquinolinyl-benzamides with potential anticonvulsant activity” (Bioorg Med Chem Lett, 1998)
